The results in this text go back to PMC11455950, “Effects of SZV-2649, a new multiple ion channel inhibitor mexiletine analogue” (Scientific Reports, 2024).

A word on the IC50: it is the concentration needed to halve the response being measured. Higher therefore signals weaker potency.

The target of assay [1] is T1, GIRK1 (Kir3.1/3.4) potassium channel (Homo sapiens, UniProt P48544+P48549).
T1 construct: host or cells: HEK293
T1 sequence (P48549 1-501): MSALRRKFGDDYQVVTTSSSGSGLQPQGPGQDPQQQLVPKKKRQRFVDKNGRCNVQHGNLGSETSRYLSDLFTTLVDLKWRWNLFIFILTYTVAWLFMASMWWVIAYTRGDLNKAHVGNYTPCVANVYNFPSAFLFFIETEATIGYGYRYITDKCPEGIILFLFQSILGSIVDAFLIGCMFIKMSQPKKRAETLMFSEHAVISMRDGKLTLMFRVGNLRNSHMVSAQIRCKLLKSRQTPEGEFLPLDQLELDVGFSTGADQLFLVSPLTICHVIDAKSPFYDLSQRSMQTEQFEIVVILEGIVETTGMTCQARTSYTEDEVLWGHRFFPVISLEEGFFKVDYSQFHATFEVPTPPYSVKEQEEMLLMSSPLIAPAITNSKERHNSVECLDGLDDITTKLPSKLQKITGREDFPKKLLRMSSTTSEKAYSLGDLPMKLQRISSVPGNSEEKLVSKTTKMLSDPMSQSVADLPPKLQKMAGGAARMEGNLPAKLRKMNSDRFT
T1 sequence (P48544 1-419): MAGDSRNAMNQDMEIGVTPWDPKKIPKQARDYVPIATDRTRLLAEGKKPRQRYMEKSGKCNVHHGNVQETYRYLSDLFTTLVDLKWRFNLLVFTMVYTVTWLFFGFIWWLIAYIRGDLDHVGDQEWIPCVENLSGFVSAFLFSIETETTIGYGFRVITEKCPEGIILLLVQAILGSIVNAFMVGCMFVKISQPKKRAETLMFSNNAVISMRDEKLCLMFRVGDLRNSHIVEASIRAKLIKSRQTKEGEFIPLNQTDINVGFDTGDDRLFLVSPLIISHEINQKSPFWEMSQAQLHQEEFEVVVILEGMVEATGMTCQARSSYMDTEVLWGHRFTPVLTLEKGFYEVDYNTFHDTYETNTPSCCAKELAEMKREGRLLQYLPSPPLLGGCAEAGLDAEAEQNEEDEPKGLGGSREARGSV
The experiment in a line: Automated planar patch-clamp, GIRK current in HEK cells. It is filed as cell-based. Particulars: HEK cells (abstract). The text has this: Inhibition of the hERG channel, the pore forming α-subunit of the native IKr cardiac potassium channel, is expected to prolong repolarization both in the atria and in the ventricles. The GIRK channel is the pore forming α-subunit of the acetylcholine-activated potassium channel and plays an important role in atrial electrophysiology. Its inhibition can be expected to decrease the acetylcholine-activated potassium current (IKACh), a current that plays an important role in the pathogenesis of AF. Therefore, the effects of SZV-2649 on the hERG and GIRK ion channels were studied by the planar patch-clamp technique in mammalian HEK cell lines stably expressing these channels.
The currents conducted by the hERG and GIRK channels were measured by using planar patch-clamp technology[,[47],[68] in the whole-cell configuration with a four-channel medium-throughput fully automated patch-clamp platform (Patchliner Quattro, Nanion Technologies GmbH, Munich, Germany) with integrated temperature control. […]
For GIRK current measurements (see Fig. 2.), the internal solution was (in mM): K-gluconate 40, NaCl 20, KF 60, EGTA 20 and HEPES 10 (pH 7.2, KOH) supplemented with 0.9 mM GTP before experiments to induce channel activation. […] The invard currents were calculated from the − 140 mV segment. […]
For orientation: In patch-clamp work, channel activity is measured electrically.

For a further assay, the system named is conscious dogs. The experiment in a line: Basic ECG parameters in conscious dogs. It is filed as in vivo, dog. As to the method: The effects of SZV-2649 on the basic ECG parameters in conscious dogs were investigated. […] Beagle dogs of either sex weighing 12–14 kg were used for the experiments. ECG measurements were taken in conscious animals using the standard I-III leads. QTc was calculated using the Van de Water’s formula[61]. SZV-2649 (10 mg/kg) was applied by i.v. or oral administration.

[2] abbreviates: intravenous 10 mg/kg, 30 min after administration, n = 6.
Setting [3] is: per os 10 mg/kg, 1 h after administration, n = 7.

With `CC(N)COc1c(I)cc(C#N)cc1I.Cl` (centres unmarked) [SZV-2649, 4-(2-aminopropoxy)-3,5-diiodobenzonitrile hydrochloride], the IC50 in assay [1] was determined as 0.529 µM. Moreover, in the assay on conscious dogs (setting [2]), the PQ turned out to be 150.6 ± 15.8 ms, the QRS is reported as 52.2 ± 3.2 ms, the QT is 234.5 ± 5.6 ms and the RR is on record as 756.1 ± 29.4 ms. In addition, in the assay on conscious dogs (intravenous 10 mg/kg, 30 min after administration, n = 6, Van de Water's formula), the QTC was determined as 255.7 ± 6.3 ms. Further, in the assay with conscious dogs (setting [3]), the PQ came out at 119.8 ± 7.5 ms, the QRS is recorded as 47.9 ± 2.4 ms, the QT is given as 215.0 ± 7.5 ms and the RR amounted to 596.2 ± 44.0 ms. Besides, in the assay with conscious dogs (per os 10 mg/kg, 1 h after administration, n = 7, Van de Water's formula), the QTC amounted to 250.1 ± 7.0 ms.
